Values joined by “and” are separate entries in the source; they are usually repeats but may differ in a detail not shown here. Equal values may be shown once.

Results on two compounds are retold here after paper PMC12081876, “Identification of PTGR2 inhibitors as a new therapeutic strategy for diabetes and obesity” (EMBO Molecular Medicine, 2025).

Data set [1] concerns HFHSD-fed obese C57BL6/J mice. The experiment in a line: Bone mineral density of femur (micro CT). Format: in vivo, mouse.
The nature of data set [2]: Pharmacokinetic study in male ICR mice. Format: in vivo, mouse. The note with it: plasma. The procedure: Male ICR mice weighing 25–30 g each were obtained from BioLASCO, Taiwan Co., Ltd., Ilan, Taiwan for pharmacokinetic study. Briefly, a single dose of BRRPT245 was given intravenously at 2 mg/kg or oral gavage at 10 mg/kg to the mice. Blood samples were taken at 0 (immediately before dosing), 2, 5 (iv only), 15 and 30 min and at 1, 2, 4, 6, 8, 16, and 24 h after administration. The T1/2 (half-life), Cl (clearance), Vss (steady-state volume of distribution), AUC (area under curve), Cmax (maximum plasma concentration), Tmax (time taken to reach Cmax), and F(bioavailability%) were calculated according to the published formula (Urso et al, [2002]).
The HPLC system consisted of an Agilent 1200 series LC System with BinPump (Waldbronn, Germany) and an Agilent Eclipse XDB C8 (3.0 × 150 mm, 5 µm) interfaced to a Sciex API 4000 tandem mass spectrometer. Mobile phase consisted of 10 mM ammonium acetate containing 0.1% of formic acid (Solvent A) and acetonitrile (Solvent B). For determination of BPTPT0245, the following stepwise gradient system was used: 85% A (0–0.5 min), 85% A to 15% A (0.6–3.0 min), 5% A (3.1–5.0 min). Total running time was 5 min. The retention times of BPRPT0245 and BPR0L187 (internal standard) (IS) were 2.21 and 2.42 min, respectively. Data acquisition was via selected ion monitoring (SIM). The collision energy was +37 V for the analyte and +38.5 V for IS, respectively. The ions monitored for BPRPT0245 were m/z 447/189 and m/z 357/195, respectively. […] Total running time was 6 min. […] Data acquisition was via SIM.
To prepare the BPRPT0245 plasma samples, 50 µL of the plasma sample mixed with 100 µL acetonitrile containing […] of BPR0L187. The mixture was vortexed for 30 s and then centrifuged at 15,000 rpm for 20 min in an Eppendorf Model 5417c centrifuge at room temperature. An aliquot (5 µL) of the mixture was then injected onto to LC-MS/MS.

Another data set addresses T1, Myc-DDK-mPPARγ (Mus musculus, UniProt P37238).
T1 construct: host or cells: HEK293T
The experiment in a line: Reciprocal co-immunoprecipitation in HEK293T cells, wild-type mPPARγ. The data set is classed as binding, murine. The note with it: 15-keto-PGE2 treated. The procedure: (§1) HEK293T cells were transfected with murin PPARγ (mPPARγ) and mPPARγ C313A plasmids for immunoprecipitation, which are Myc-DDK-tagged (OriGene, USA). […] According to the manufacturer’s protocol, proteins were immunoprecipitated using Anti-FLAG® M2 Magnetic Beads (2.5 mg/ml; cat. no. F1804, Sigma-Aldrich). Subsequently, the eluted proteins were separated by SDS-PAGE and subjected to immunoblot analysis. Following separation by SDS-PAGE, proteins were stained with Coomassie blue and SYPRO-Ruby stain. The protein bands of interest were cut out for in-gel tryptic digestion followed by C18 Zip-Tip clean-up (Millipore, USA). For proteomic shotgun identifications, nanoLC-nanoESI-MS/MS analysis was performed on a nanoAcquity system (Waters, USA) connected to the LTQ Orbitrap Velos hybrid MS (Thermo Electron, USA) equipped with a PicoView nanospray interface (New Objective, USA). Samples were loaded onto a C18 BEH column (75 μm × 25 cm length, 130 Å, 1.7 μm particle size) (Waters, USA) and separated by a segmented gradient form in 60 min from 5% to 40% acetonitrile (with 0.1% formic acid) at a constant flow rate of 300 nL/min with a column temperature of 35 °C. The mass spectrometer was operated in the data-dependent mode. […] Protein identification and modification were analyzed using Mascot Daemon (Matrix Science Inc., Chicago). […]

The test system of the next data set is Ucp1. The data set can be described thus: Relative Ucp1 expression in fat depots (RT-qPCR). The data set is classed as in vivo, mouse. The note with it: 40 mg/kg/day ip, HFHSD-fed mice, vs vehicle. A general note: Quantitative PCR measures a nucleic acid by following its amplification.
Data set [3] concerns the target T2, murine PPARγ (mPPARγ) (Mus musculus, UniProt P37238).
T2 construct: host or cells: HEK293T
The data set can be described thus: LC-MS/MS of covalent binding to mPPARγ overexpressed in HEK293T cells. The note with it: HEK293T cells overexpressing mPPARγ. The procedure: as §1
T2 sequence (P37238 whole entry): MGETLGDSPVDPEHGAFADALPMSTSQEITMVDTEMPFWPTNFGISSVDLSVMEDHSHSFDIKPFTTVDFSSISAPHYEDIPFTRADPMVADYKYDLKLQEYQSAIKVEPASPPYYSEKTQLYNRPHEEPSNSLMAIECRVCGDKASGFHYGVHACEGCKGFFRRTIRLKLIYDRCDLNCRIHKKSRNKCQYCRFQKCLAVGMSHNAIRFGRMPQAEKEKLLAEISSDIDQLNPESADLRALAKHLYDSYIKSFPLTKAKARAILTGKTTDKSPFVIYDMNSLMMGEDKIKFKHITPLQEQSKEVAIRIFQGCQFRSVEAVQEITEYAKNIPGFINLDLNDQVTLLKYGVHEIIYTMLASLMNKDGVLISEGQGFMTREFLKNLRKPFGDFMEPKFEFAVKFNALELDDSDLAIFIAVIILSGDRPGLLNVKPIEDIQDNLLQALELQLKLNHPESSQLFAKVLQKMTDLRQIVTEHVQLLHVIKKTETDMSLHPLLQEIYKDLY

Data set [4] addresses T3, murine PPARγ (mPPARγ) (Mus musculus, UniProt P37238).
T3 construct: host or cells: HEK293T
The experiment in a line: Gal4-PPARγ/UAS-LUC reporter assay in HEK293T cells. Format: cell-based. Also noted: key to Gal4-PPARγ/UAS-LUC reporter activity, Fig 1B replicates: luciferase activity normalized to TK reporter signal. The procedure: Briefly, HEK293T cells were seeded in 24-well plates at 1 × 10^5 cells/well. […] Luciferase activity was measured using Luc-Pair™ Duo-Luciferase HS Assay Kit (cat. no. LF600, Promega) and normalized with the TK reporter signal.
T3 sequence (P37238 with tags, fused parts or gaps limits assumed): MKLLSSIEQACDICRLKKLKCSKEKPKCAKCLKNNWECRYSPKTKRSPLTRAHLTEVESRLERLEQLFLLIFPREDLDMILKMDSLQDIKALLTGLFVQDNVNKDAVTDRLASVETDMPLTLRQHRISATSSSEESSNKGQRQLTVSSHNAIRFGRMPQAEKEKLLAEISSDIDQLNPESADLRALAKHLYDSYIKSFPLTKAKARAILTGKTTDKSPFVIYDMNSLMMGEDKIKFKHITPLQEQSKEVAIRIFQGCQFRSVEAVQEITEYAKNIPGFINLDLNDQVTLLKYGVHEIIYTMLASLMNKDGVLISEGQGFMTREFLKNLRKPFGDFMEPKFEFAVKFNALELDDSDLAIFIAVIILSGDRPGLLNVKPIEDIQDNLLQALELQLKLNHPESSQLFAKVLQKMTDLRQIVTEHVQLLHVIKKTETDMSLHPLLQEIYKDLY

T1 sequence (P37238 whole entry): as the sequence (P37238 whole entry) above

Consider `Cc1[nH]c2nc(C(C)N3CCN(c4ccccc4)CC3)nn2c(=O)c1Cc1ccc(F)cc1` (stereo not drawn) [BPRPT0245], for which the Bone mineral density entry in data set [1] (100 mg/kg/day oral, 26 weeks, vs vehicle) is “no difference”. Further, the “Figure 5T value (bone mineral density of femur), individual mice” value in data set [1] (individual values, BPRPT0245 group (Figure 5T)) was 0.3548 and 0.3423 and 0.3795 and 0.3591 and 0.3711 and 0.3604 and 0.3411 and 0.3634 and 0.3483 and 0.3707. Also, in data set [2] (Mouse IV, dose 2 mg/kg), the AUC(0-inf) (commonly the area under the concentration-time curve extrapolated to infinity) came out at 480 ng·h/mL; the clearance (in general, the volume of plasma or blood freed of the substance per unit of time) came to 79.5 mL/min/kg; the half-life (commonly the time needed for the level to fall by half in the phase considered) is 2 h. Besides, in data set [2] (Mouse IV, dose 2 mg/kg, read-out: Vss), the Vd was 5 L/kg. Further, in data set [2] (Mouse PO, dose 10 mg/kg), the AUC(0-inf) was found to be 725 ng·h/mL; the Cmax (commonly the maximum level reached in the sampled fluid or tissue) worked out at 398 ng/mL; the Tmax – broadly, the time from dosing to the highest level – was found to be 0.4 h; the half-life is 2.5 h. In addition, in data set [2] (Mouse PO, dose 10 mg/kg, read-out: F(%) bioavailability), the bioavailability (commonly the share of a dose that reaches the circulation, judged against a reference dose that is usually intravenous) worked out at 30.2%.

In the case of `CCCCCC(=O)/C=C/[C@H]1[C@H](O)CC(=O)[C@@H]1C/C=C\CCCC(=O)O` [15-keto-PGE2, 15-keto-prostaglandin E2], the “co-immunoprecipitation with 15-keto-PGE2-cysteine antibody, wild-type mPPARγ” value on Myc-DDK-mPPARγ is “A single band of PPARγ (57 kDa) was detected”. For the same compound, the “expression of Ucp1 in fat depots” value in the data set with Ucp1 was “increased expression of Ucp1 in inguinal, perigonadal, and brown adipose tissues”. For the same compound, on murine PPARγ (mPPARγ) [3], the “covalent binding site on mPPARγ (LC-MS/MS)” value is “covalently binds mPPARγ at the Cys313 residue”. The “Gal4-PPARγ/UAS-LUC reporter activity, Fig 1B replicates” value is 2.161 and 2.101 and 1.961 on murine PPARγ (mPPARγ) [4] (15kPGE2 5μM); 2.283 and 3.108 and 3.049 on murine PPARγ (mPPARγ) [4] (15kPGE2 10μM); 5.273 and 6.22 and 5.349 at murine PPARγ (mPPARγ) [4] (15kPGE2 30μM). Moreover, at murine PPARγ (mPPARγ) [4] (HEK293T cells), the “transactivation activity of PPARγ (Gal4-PPARγ/UAS-LUC reporter)” value is given as “enhanced the transactivation activity of PPARγ in a dose-dependent manner”.
